Here are results for 16 compounds from patent publication US10421740B2, “Pesticidally active heterocyclic derivatives with sulphur containing substituents” (SYNGENTA PARTICIPATIONS AG, priority 2016, dated 2019).

In data set [1] the test system is Myzus persicae (Green Peach Aphid). The data set is described as follows: Activity against Myzus persicae (green peach aphid): systemic activity. Conditions: 144 h, test rate 24 ppm, roots of pea seedlings in test solution, 6 days. In kind it is in vivo. As to the method:
Example B4: Activity Against Myzus persicae (Green Peach Aphid): Systemic Activity
Roots of pea seedlings infested with an aphid population of mixed ages were placed directly into aqueous test solutions prepared from 10'000 DMSO stock solutions. The samples were assessed for mortality 6 days after placing seedlings into test solutions.

Data set [2] shares this test system. The data set is described as follows: Activity against Myzus persicae (green peach aphid): feeding/contact activity. In kind it is in vivo. The settings on record: foliar, 144 h, application rate 200 ppm, sunflower leaf discs, aphid population of mixed ages, 6 days after infestation. As to the method: Example B3: Activity Against Myzus persicae (Green Peach Aphid): Feeding/Contact Activity
Sunflower leaf discs were placed onto agar in a 24-well microtiter plate and sprayed with aqueous test solutions prepared from 10'000 ppm DMSO stock solutions. After drying, the leaf discs were infested with an aphid population of mixed ages. The samples were assessed for mortality 6 days after infestation.

The test system of data set [3] is Diabrotica balteata (Corn Root Worm). Nature of the data set: Activity against Diabrotica balteata (corn root worm). In kind it is in vivo. Conditions: 96 h, application rate 200 ppm, maize sprouts, L2 larvae, 4 days after infestation, read-out: effect in at least one of the two categories (mortality or growth inhibition). As to the method:
Example B2: Activity Against Diabrotica balteata (Corn Root Worm)
Maize sprouts placed onto an agar layer in 24-well microtiter plates were treated with aqueous test solutions prepared from 10'000 ppm DMSO stock solutions by spraying. After drying, the plates were infested with L2 larvae (6 to 10 per well). The samples were assessed for mortality and growth inhibition in comparison to untreated samples 4 days after infestation.

The subject of data set [4] is Plutella xylostella (Diamond Back Moth). Nature of the data set: Activity against Plutella xylostella (diamond back moth). Type of data set: in vivo. Conditions: 120 h, application rate 200 ppm, artificial diet, L2 larvae, 5 days after infestation, read-out: effect in at least one of the two categories (mortality or growth inhibition). As to the method: Example B5: Activity Against Plutella xylostella (Diamond Back Moth)
24-well microtiter plates with artificial diet were treated with aqueous test solutions prepared from 10'000 ppm DMSO stock solutions by pipetting. After drying, the plates were infested with L2 larvae (10 to 15 per well). The samples were assessed for mortality and growth inhibition in comparison to untreated samples 5 days after infestation.

Data set [5] concerns Spodoptera littoralis (Egyptian Cotton Leaf Worm). Nature of the data set: Activity against Spodoptera littoralis (Egyptian cotton leaf worm), cotton leaf disc spray. Conditions: foliar, 72 h, application rate 200 ppm, cotton leaf discs, L1 larvae, 3 days after infestation. Type of data set: in vivo. As to the method: Example B8: Activity Against Spodoptera littoralis (Egyptian Cotton Leaf Worm)
Cotton leaf discs were placed onto agar in 24-well microtiter plates and sprayed with aqueous test solutions prepared from 10'000 ppm DMSO stock solutions. After drying the leaf discs were infested with five L1 larvae. The samples were assessed for mortality, anti-feeding effect, and growth inhibition in comparison to untreated samples 3 days after infestation. Control of Spodoptera littoralis by a test sample is given when at least one of the categories mortality, anti-feedant effect, and growth inhibition is higher than the untreated sample.

Data set [6] relates to Euschistus heros (Neotropical Brown Stink Bug). The data set is described as follows: Activity against Euschistus heros (neotropical brown stink bug). In kind it is in vivo. The settings on record: 120 h, application rate 200 ppm, soybean leaves, N2 nymphs, 5 days after infestation, read-out: effect in at least one of the two categories (mortality or growth inhibition). As to the method: Example B9: Activity Against Euschistus heros (Neotropical Brown Stink Bug)
Soybean leaves on agar in 24-well microtiter plates were sprayed with aqueous test solutions prepared from 10'000 ppm DMSO stock solutions. After drying the leaves were infested with N2 nymphs. The samples were assessed for mortality and growth inhibition in comparison to untreated samples 5 days after infestation.

For data set [7], the system named is Bemisia tabaci (Cotton White Fly). The data set is described as follows: Activity against Bemisia tabaci (cotton white fly): feeding/contact activity. Type of data set: in vivo. Conditions: foliar, 144 h, application rate 200 ppm, cotton leaf discs, adult white flies, 6 days after incubation. As to the method: Example B1: Activity Against Bemisia tabaci (Cotton White Fly): Feeding/Contact Activity
Cotton leaf discs were placed on agar in 24-well microtiter plates and sprayed with aqueous test solutions prepared from 10'000 ppm DMSO stock solutions. After drying the leaf discs were infested with adult white flies. The samples were checked for mortality 6 days after incubation.

Where only a bound is given, the exact number is not on record here.

Usually mortality stands for the share of the test organisms that died. For orientation: melting point means the temperature of the solid-liquid transition.

In data set [1], `CCS(=O)(=O)c1cc2ccccc2nc1-c1nnc(-c2cc(C(F)(F)F)ccn2)n1C` [Compound A3, 3-ethylsulfonyl-2-[4-methyl-5-[4-(trifluoromethyl)-2-pyridyl]-1,2,4-triazol-3-yl]quinoline] returned a mortality at 24 ppm of at least 80%. The same compound showed a mortality at 200 ppm in data set [2] of at least 80%. In data set [3], the percent effect (mortality or growth inhibition) at 200 ppm was at least 80%. Further, in data set [4], the percent control (mortality or growth inhibition) at 200 ppm was at least 80%. In addition, the percent control (mortality, anti-feedant effect or growth inhibition) at 200 ppm in data set [5] is at least 80%.

In data set [2], `CCS(=O)(=O)c1cc2ccccc2nc1-c1nnc(-c2cc(C(F)(F)F)ncn2)n1C` [Compound A4, 3-ethylsulfonyl-2-[4-methyl-5-[6-(trifluoromethyl)pyrimidin-4-yl]-1,2,4-triazol-3-yl]quinoline] had a mortality at 200 ppm of at least 80%. For the same compound, in data set [3], the percent effect (mortality or growth inhibition) at 200 ppm was at least 80%. Moreover, the percent control (mortality or growth inhibition) at 200 ppm in data set [4] was at least 80%.

Regarding `CCS(=O)(=O)c1cc2c(cc1-c1nnc(-c3ccc(C(F)(F)F)nc3)n1C)nc(C(F)(F)F)n2C` [Compound A5, 6-ethylsulfonyl-1-methyl-5-[4-methyl-5-[6-(trifluoromethyl)-3-pyridyl]-1,2,4-triazol-3-yl]-2-(trifluoromethyl)benzimidazole], the mortality at 24 ppm in data set [1] was at least 80%. In data set [2], this compound registered a mortality at 200 ppm of at least 80%. The effect (mortality or growth inhibition) at 200 ppm in data set [6] was at least 80%. Moreover, in data set [5], the percent control (mortality, anti-feedant effect or growth inhibition) at 200 ppm was at least 80%.

In turn, `CCS(=O)(=O)c1cc2nc(C(F)(F)F)sc2cc1-c1nnc(-c2cc(C(F)(F)F)ccn2)n1C` [Compound A6, 5-ethylsulfonyl-6-[4-methyl-5-[4-(trifluoromethyl)-2-pyridyl]-1,2,4-triazol-3-yl]-2-(trifluoromethyl)-1,3-benzothiazole] showed a mortality at 200 ppm in data set [7] of at least 80%. Also, the percent effect (mortality or growth inhibition) at 200 ppm in data set [3] was at least 80%. In addition, the percent control (mortality or growth inhibition) at 200 ppm in data set [4] is at least 80%. This compound also yielded a percent control (mortality, anti-feedant effect or growth inhibition) at 200 ppm in data set [5] of at least 80%.

As for `CCSc1cc2sc(C(F)(F)F)nc2cc1-c1nnc(-c2cc(C(F)(F)F)ccn2)n1C` [Compound A7, 6-ethylsulfanyl-5-[4-methyl-5-[4-(trifluoromethyl)-2-pyridyl]-1,2,4-triazol-3-yl]-2-(trifluoromethyl)-1,3-benzothiazole], in data set [3], the percent effect (mortality or growth inhibition) at 200 ppm was at least 80%. For the same compound, the percent control (mortality, anti-feedant effect or growth inhibition) at 200 ppm in data set [5] is at least 80%.

Consider `CCS(=O)(=O)c1cc2c(nnn2C)nc1-c1nnc(-c2cc(C(F)(F)F)ccn2)n1C` [Compound A9, 6-ethylsulfonyl-1-methyl-5-[4-methyl-5-[4-(trifluoromethyl)-2-pyridyl]-1,2,4-triazol-3-yl]triazolo[4,5-b]pyridine], for which the mortality at 200 ppm in data set [7] and in data set [2] was at least 80% each time. Further, the effect (mortality or growth inhibition) at 200 ppm in data set [6] is at least 80%. The percent effect (mortality or growth inhibition) at 200 ppm in data set [3] is at least 80%. Besides, the percent control (mortality or growth inhibition) at 200 ppm in data set [4] was at least 80%. Further, the percent control (mortality, anti-feedant effect or growth inhibition) at 200 ppm in data set [5] is at least 80%.

With `CCS(=O)(=O)c1cc2nnn(C)c2nc1-c1nnc(-c2cc(C(F)(F)F)ccn2)n1C` [Compound A10, 6-ethylsulfonyl-3-methyl-5-[4-methyl-5-[4-(trifluoromethyl)-2-pyridyl]-1,2,4-triazol-3-yl]triazolo[4,5-b]pyridine], the mortality at 200 ppm in data set [7] and in data set [2] was at least 80% throughout. Moreover, in data set [1], the mortality at 24 ppm was at least 80%. Besides, the percent effect (mortality or growth inhibition) at 200 ppm in data set [3] is at least 80%. Further, the percent control (mortality or growth inhibition) at 200 ppm in data set [4] was at least 80%. For the same compound, the percent control (mortality, anti-feedant effect or growth inhibition) at 200 ppm in data set [5] was at least 80%.

`CCS(=O)(=O)c1cc2c(nnn2COC)nc1-c1nnc(-c2cc(C(F)(F)F)ccn2)n1C` [Compound A11, 6-ethylsulfonyl-1-(methoxymethyl)-5-[4-methyl-5-[4-(trifluoromethyl)-2-pyridyl]-1,2,4-triazol-3-yl]triazolo[4,5-b]pyridine] yielded a melting point of 176 to 178 °C.

Consider `CCS(=O)(=O)c1cc2[nH]nnc2nc1-c1nnc(-c2cc(C(F)(F)F)ccn2)n1C` [Compound A12, 6-ethylsulfonyl-5-[4-methyl-5-[4-(trifluoromethyl)-2-pyridyl]-1,2,4-triazol-3-yl]-1H-triazolo[4,5-b]pyridine], for which the melting point fell in the range of 303 to 305 °C.

Turning to `CCn1nnc2nc(-c3nnc(-c4cc(C(F)(F)F)ccn4)n3C)c(S(=O)(=O)CC)cc21` [Compound A13, 1-ethyl-6-ethylsulfonyl-5-[4-methyl-5-[4-(trifluoromethyl)-2-pyridyl]-1,2,4-triazol-3-yl]triazolo[4,5-b]pyridine], the mortality at 24 ppm in data set [1] is at least 80%. The mortality at 200 ppm in data set [2] is at least 80%. In addition, the effect (mortality or growth inhibition) at 200 ppm in data set [6] was at least 80%. For the same compound, the percent control (mortality or growth inhibition) at 200 ppm in data set [4] is at least 80%.

Take `CCS(=O)(=O)c1cc2c(nnn2CCF)nc1-c1nnc(-c2cc(C(F)(F)F)ccn2)n1C` [Compound A14, 6-ethylsulfonyl-1-(2-fluoroethyl)-5-[4-methyl-5-[4-(trifluoromethyl)-2-pyridyl]-1,2,4-triazol-3-yl]triazolo[4,5-b]pyridine]: the mortality at 24 ppm in data set [1] was at least 80%. In data set [2], this compound yielded a mortality at 200 ppm of at least 80%. Further, the effect (mortality or growth inhibition) at 200 ppm in data set [6] was at least 80%. Further, the percent control (mortality or growth inhibition) at 200 ppm in data set [4] is at least 80%.

In the case of `CCS(=O)(=O)c1cc2nnn(CCF)c2nc1-c1nnc(-c2cc(C(F)(F)F)ccn2)n1C` [Compound A15, 6-ethylsulfonyl-3-(2-fluoroethyl)-5-[4-methyl-5-[4-(trifluoromethyl)-2-pyridyl]-1,2,4-triazol-3-yl]triazolo[4,5-b]pyridine], the mortality at 24 ppm in data set [1] was at least 80%.

As to `CCS(=O)(=O)c1cc2nn(COC)nc2nc1-c1nnc(-c2cc(C(F)(F)F)ccn2)n1C` [Compound A17, 6-ethylsulfonyl-2-(methoxymethyl)-5-[4-methyl-5-[4-(trifluoromethyl)-2-pyridyl]-1,2,4-triazol-3-yl]triazolo[4,5-b]pyridine], the mortality at 24 ppm in data set [1] was at least 80%.

`CCS(=O)(=O)c1cc2nn(C)nc2nc1-c1nnc(-c2cc(C(F)(F)F)ccn2)n1C` [Compound A18, 6-ethylsulfonyl-2-methyl-5-[4-methyl-5-[4-(trifluoromethyl)-2-pyridyl]-1,2,4-triazol-3-yl]triazolo[4,5-b]pyridine] had a mortality at 24 ppm in data set [1] of at least 80%. In data set [2], this compound had a mortality at 200 ppm of at least 80%. The effect (mortality or growth inhibition) at 200 ppm in data set [6] is at least 80%.

`CCS(=O)(=O)c1cc2c(nc1-c1nnc(-c3cc(C(F)(F)F)ccn3)n1C)CC(C)(C)O2` [Compound A19, 6-ethylsulfonyl-2,2-dimethyl-5-[4-methyl-5-[4-(trifluoromethyl)-2-pyridyl]-1,2,4-triazol-3-yl]-3H-furo[3,2-b]pyridine]: the percent control (mortality or growth inhibition) at 200 ppm in data set [4] is at least 80%. For the same compound, the percent control (mortality, anti-feedant effect or growth inhibition) at 200 ppm in data set [5] is at least 80%.

In turn, `CCS(=O)(=O)c1cc2c(nc1-c1nnc(-c3cc(C(F)(F)F)ncn3)n1C)CC(C)(C)O2` [Compound A20, 6-ethylsulfonyl-2,2-dimethyl-5-[4-methyl-5-[6-(trifluoromethyl)pyrimidin-4-yl]-1,2,4-triazol-3-yl]-3H-furo[3,2-b]pyridine] came in with a mortality at 24 ppm in data set [1] of at least 80%. In data set [6], the effect (mortality or growth inhibition) at 200 ppm is at least 80%. Further, in data set [3], the percent effect (mortality or growth inhibition) at 200 ppm is at least 80%. The percent control (mortality, anti-feedant effect or growth inhibition) at 200 ppm in data set [5] was at least 80%.
